Assay results published in PubChem BioAssay (NCI).
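Dose response: 5 concentrations. Exposure: 48 h. Format: 96-well plates. Endpoint: linear interpolation; highest concentration if not reached. Here, GI50 denotes the concentration required for 50% inhibition of growth. TGI: concentration producing complete growth inhibition.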

What was measured:
Experiment in all cases: NCI anticancer screen, dose series, 48 h
A498 renal = tested on: A498 renal
A549 NSCLC = tested on: A549 NSCLC
DU-145 prostate = tested on: DU-145 prostate
HT29 colon = tested on: HT29 colon
MDA-MB-435 = tested on: MDA-MB-435
OVCAR-4 ovarian = tested on: OVCAR-4 ovarian
SK-MEL-5 melanoma = tested on: SK-MEL-5 melanoma
SNB-19 CNS = tested on: SNB-19 CNS
SR leukemia = tested on: SR leukemia
UO-31 renal = tested on: UO-31 renal

Structure (SMILES) | GI50 (A498 renal) | TGI (A498 renal) | GI50 (A549 NSCLC) | TGI (A549 NSCLC) | GI50 (DU-145 prostate) | TGI (DU-145 prostate) | GI50 (HT29 colon) | TGI (HT29 colon) | GI50 (MDA-MB-435) | TGI (MDA-MB-435) | GI50 (OVCAR-4 ovarian) | TGI (OVCAR-4 ovarian) | GI50 (SK-MEL-5 melanoma) | TGI (SK-MEL-5 melanoma) | GI50 (SNB-19 CNS) | TGI (SNB-19 CNS) | GI50 (SR leukemia) | TGI (SR leukemia) | GI50 (UO-31 renal) | TGI (UO-31 renal)
OCc1ccc(N(CCN2CCCC2)Cc2ccc(F)cc2)cc1Cl | 1.97 µM | 11.9 µM | 6.5 µM | 27.9 µM | 17.1 µM | 39.7 µM | 15.6 µM | 32.8 µM | 15.9 µM | 32.8 µM | 11.1 µM | > 100 µM | 15 µM | 28.4 µM | 25 µM | 82.1 µM | 16.1 µM | 44.8 µM | 13.8 µM | 31.2 µM
COc1ccc(/C=C/NC=O)cc1 |  | > 100 µM |  | > 100 µM |  | > 100 µM |  | > 100 µM |  | > 100 µM |  | > 100 µM |  | > 100 µM |  | > 100 µM |  | > 100 µM |  | > 100 µM
COc1ccc(N(C)c2c3ccccc3nc3[nH]c4ccccc4c23)cc1 | 0.939 µM | 2.61 µM | 0.724 µM | 9.19 µM | 0.675 µM | 3.69 µM | 0.617 µM | 10.3 µM | 1.12 µM | 3.22 µM |  |  | 0.835 µM | 2.24 µM | 0.634 µM | 5.62 µM | 0.186 µM | 50 µM | 2.83 µM | 22.2 µM
NC1CCC(N[C@@H]2C[C@H]2c2ccccc2)CC1 (stereo partly drawn) | 21.4 µM | > 100 µM | > 100 µM | > 100 µM | > 100 µM | > 100 µM | 40.1 µM | > 100 µM | 48.4 µM | > 100 µM | > 100 µM | > 100 µM | > 100 µM | > 100 µM | > 100 µM | > 100 µM | 19.9 µM | > 100 µM | 67.4 µM | > 100 µM
COc1ccc2c(c1)/C(=N/OC(C)=O)c1c-2c(=O)[nH]c2ccccc12 | 7.45 µM | 32.4 µM | 15.8 µM | 31.3 µM | 10.6 µM | 25.3 µM | 15.6 µM | 32.8 µM | 17.3 µM | 34.5 µM | 4.88 µM | 21.3 µM | 5.79 µM | 19.4 µM | 15.3 µM | 40.4 µM | 6.63 µM | 33.1 µM | 11.1 µM | 25.2 µM
NS(=O)(=O)c1ccc(NC(=O)c2cccc3cc4ccccc4nc23)cc1 |  | > 100 µM |  | > 100 µM |  | > 100 µM |  | > 100 µM |  | > 100 µM |  | > 100 µM |  | > 100 µM |  | > 100 µM |  | > 100 µM |  | > 100 µM
COc1ccc(-c2csc(NC(=O)c3cc(O)c(O)c(O)c3)n2)cc1 | 9.61 µM | > 33.3 µM | 10.3 µM | > 33.3 µM | 9.59 µM | > 33.3 µM | 18.6 µM | > 33.3 µM | 8.69 µM | > 33.3 µM | 7.27 µM | > 33.3 µM | 6.04 µM | > 33.3 µM | 6.02 µM | > 33.3 µM | 1.89 µM | > 33.3 µM | 1.65 µM | > 33.3 µM
CCCN(CCSSCCNc1nc(N(C)O)nc(N(C)O)n1)c1nc(N(C)O)nc(N(C)O)n1 | 19.5 µM | > 100 µM | 7.59 µM | > 100 µM | 8.78 µM | > 100 µM | 7.81 µM | > 100 µM | 4.91 µM | > 100 µM | 3.29 µM | > 100 µM | 8.65 µM | > 100 µM | 4.15 µM | > 100 µM | 2.71 µM | > 100 µM | 5.19 µM | > 100 µM
Cn1c(=O)c(Oc2ccccc2)cc2cnc(NC3CCOCC3)nc21 | > 25 µM | > 25 µM | > 25 µM | > 25 µM | > 25 µM | > 25 µM | > 25 µM | > 25 µM | > 25 µM | > 25 µM | > 25 µM | > 25 µM | > 25 µM | > 25 µM | > 25 µM | > 25 µM | > 25 µM | > 25 µM | > 25 µM | > 25 µM
CN(C)CCCn1c2nc(=O)[nH]c(=O)c-2nc2cc(Cl)c(Cl)cc21 | 16.1 µM | 30.4 µM | 4.02 µM | 16.3 µM | 16.4 µM | 30 µM | 2.13 µM | 11.9 µM | 2.14 µM | 5.2 µM | 6.3 µM | 18.8 µM | 1.65 µM | 3.12 µM | 12.7 µM | 26 µM | 6.61 µM | 30.5 µM | 2.73 µM | 10.9 µM
CNCCCNCCCN1C(=O)c2ccc3c4c(ccc(c24)C1=O)C(=O)N(CCCNCc1ccccc1OC)C3=O | 1.54 µM | 8.91 µM | 0.577 µM | 4.97 µM | 1.05 µM | 2.39 µM | 0.381 µM | 1.95 µM | 1.07 µM | 2.91 µM | 0.642 µM | 2.04 µM | 1.1 µM | 2.32 µM | 1.68 µM | 11.1 µM | 0.27 µM | 2.45 µM | 5.88 µM | 27.5 µM
COc1ccccc1/C=C/C(=O)/C=C/c1ccccc1OC | 1.54 µM | 3.06 µM | 2.35 µM | 7 µM | 1.96 µM | 4.15 µM | 2.24 µM | 5.04 µM | 2.04 µM | 5.61 µM | 1.51 µM | 16.6 µM | 1.5 µM | 2.87 µM | 1.84 µM | 4.1 µM | 1.18 µM | 8.22 µM | 1.83 µM | 3.33 µM
C=C1C(=O)O[C@H]2[C@H]1CC/C(Cn1cc(-c3cc(C)c(C)cc3C)nn1)=C\CC[C@@]1(C)O[C@@H]21 | 1.04 µM | 4 µM | 1.73 µM | 4.31 µM | 1.35 µM | 2.63 µM | 0.502 µM | 1.91 µM | 1.41 µM | 3.76 µM | 0.701 µM | 2.12 µM | 1.66 µM | 3.12 µM | 3.9 µM | 15.9 µM | 1.26 µM | 7.8 µM | 0.528 µM | 1.89 µM
O=C(CC1C=CCS1(=O)=O)NCc1ccccc1 (stereo not drawn) |  |  |  | > 100 µM |  | > 100 µM |  | > 100 µM |  | > 100 µM |  | > 100 µM |  | > 100 µM |  | > 100 µM |  | > 100 µM |  | > 100 µM
CCNCCCn1c2c(c3ccc([N+](=O)[O-])cc3c1=O)C(=O)c1cc(OC)cnc1-2 |  |  | 0.0776 µM | 0.296 µM | 0.0558 µM | 1.16 µM | 0.0579 µM | 1.25 µM | 0.133 µM | 0.744 µM | 0.176 µM | 1.49 µM | 0.078 µM | 0.234 µM | 0.0576 µM | 2.53 µM |  | 1.27 µM | 0.0327 µM | 0.176 µM
O=C(Nc1cccc(-n2cc(-c3ccncc3)c(-c3ccc(O)c(Cl)c3)n2)c1)Nc1cccc(C(F)(F)F)c1 | 1.9 µM | 8.99 µM | 1.93 µM | 8.09 µM | 3.01 µM | 11.8 µM | 3.75 µM | 13.7 µM | 1.82 µM | 4.65 µM |  |  | 1.59 µM | 3.01 µM | 2.88 µM | 46.2 µM | 1.02 µM | 4.71 µM | 2.01 µM | 7.05 µM
C[C@H](N)C(=O)N1C[C@H](CCCB(O)O)[C@](N)(C(=O)O)C1 | > 100 µM | > 100 µM | > 100 µM | > 100 µM | > 100 µM | > 100 µM | > 100 µM | > 100 µM | > 100 µM | > 100 µM |  |  | > 100 µM | > 100 µM | > 100 µM | > 100 µM | > 100 µM | > 100 µM | > 100 µM | > 100 µM
O=C1CS/C(=N\S(=O)(=O)c2ccc(N3N=C4c5ccccc5CC4C3c3ccc(Cl)cc3)cc2)N1c1ccccc1 (stereo not drawn) | 25.6 µM | 53 µM | 24.2 µM | 65.8 µM | 33.9 µM | > 100 µM |  |  | 30.6 µM | 88.8 µM |  |  | 32.2 µM | > 100 µM | 23.3 µM | > 100 µM | 11.4 µM | 28.1 µM | 29.1 µM | > 100 µM
Cc1cc(=O)oc2cc(OS(C)(=O)=O)ccc12 |  | > 100 µM |  | > 100 µM |  | > 100 µM |  | > 100 µM |  | > 100 µM |  | > 100 µM |  | > 100 µM |  | > 100 µM |  | > 100 µM |  | 
Cc1ccc(Sc2sc(-c3ccccc3)nc2[P+](c2ccccc2)(c2ccccc2)c2ccccc2)cc1 | 0.137 µM | 0.568 µM |  |  | 0.379 µM | 1.37 µM | 0.237 µM | 1.17 µM | 0.291 µM | 0.882 µM | 0.305 µM | 1.09 µM | 0.172 µM | 0.313 µM | 0.33 µM | 1.33 µM | 0.368 µM | 3.77 µM | 0.24 µM | 0.811 µM
